Data published in patent publication US6399654B1, “Biflavanoids and derivatives thereof as antiviral agents” (priority 1995, dated 2002).
Read-outs that look alike come from different tables or passages of the source.

Key:
Hepatitis B Virus (HBV) = test: Inhibition of HBV replication in 2.2.15 cells, extracellular (virion) HBV DNA; settings: for EC50 / EC90: Hepatitis B virus; for SI (CC50/EC90), HBV Virion: selective index;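 as to all read-outs here: extracellular virion HBV DNA in culture medium measured by slot blot hybridization with a 32P-labeled HBV probe, quantified against HBV DNA standards, after 9 days of daily dosing, compared with day 0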
2.2.15 cells = test: HBV cytotoxicity assay, neutral red dye uptake in 2.2.15 cells; assay type: cell-based; settings: Homo sapiens, read-out: IC50 (toxicity, neutral red dye uptake)
Method: The toxicity of the test compounds in cultures of 2.2.15 cells, grown to confluence in 96-well flat-bottomed tissue culture plates and treated with compounds as described above, were assayed at four concentrations each in triplicate cultures, in 3 to 10-fold steps. Untreated control cultures were maintained on each plate. On each plate, wells containing no cells were used to correct for light scattering.
Stock solutions of text drugs were prepared in DMSO.

[1] = 216 h, read-out: EC50 (50% effective dose), HBV Virion, 2.2.15 cells, extracellular (virion) HBV DNA, 9 days treatment
[2] = 216 h, read-out: EC90 (90% effective dose), HBV Virion, 2.2.15 cells, extracellular (virion) HBV DNA, 9 days treatment
[3] = read-out: EC50, concentration necessary to decrease HBV DNA levels by 50%, 2.2.15 cells, combinations: with respect to RF
[4] = read-out: EC90, concentration necessary to decrease HBV DNA levels by 90%, 2.2.15 cells, combinations: with respect to RF

Structure (SMILES) | EC50 (Hepatitis B Virus (HBV); [1]) | EC90 (Hepatitis B Virus (HBV); [2]) | EC50 (Hepatitis B Virus (HBV); [3]) | EC90 (Hepatitis B Virus (HBV); [4]) | SI (CC50/EC90), HBV Virion (Hepatitis B Virus (HBV)) | IC50 (2.2.15 cells)
Nc1ccn([C@@H]2CS[C@H](CO)O2)c(=O)n1 [Lamivudine (3TC), lamivudine, reference compound] | 0.038 µM | 0.16 µM | 0.038 µM | 0.16 µM | 11200 | 1790 µM
Nc1nc2c(ncn2CCC(CO)CO)c(=O)[nH]1 [Penciclovir, penciclovir, reference compound] | 0.19 µM | 0.92 µM | 0.19 µM | 0.92 µM | 471 | 433 µM
